Measurements published in patent US10251395B2, “Substituted furano-/thienocycloalkylamino-2-pyrimidine derivatives and use thereof for controlling undesired plant growth” (Bayer CropScience Aktiengesellschaft, priority 2015, dated 2019).

How the values were obtained:
Type in all cases: in vivo
[1] = system: Amaranthus retroflexus; assay: Pre-emergence herbicidal effect; details: scored visually after 3 weeks
Outline: (§1)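 Pre-em soil-surface spray; sandy loam, seeds covered with soil. WP/EC, aq. suspension/emulsion, 600–800 L/ha, +0.2% wetting agent. GH 3 wk; visual % activity vs untreated (100% = dead).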

[2] = system: Stellaria media; assay: Pre-emergence herbicidal effect; details: scored visually after 3 weeks
Outline: as §1

[3] = system: Setaria viridis; assay: Pre-emergence herbicidal effect; details: scored visually after 3 weeks
Outline: as §1

[4] = system: Lolium multiflorum; assay: Pre-emergence herbicidal effect; details: Dosage 320 g/ha, scored visually after 3 weeks
Outline: as §1

[5] = system: Veronica persica; assay: Pre-emergence herbicidal effect; details: scored visually after 3 weeks
Outline: as §1

[6] = system: Viola tricolor; assay: Pre-emergence herbicidal effect; details: scored visually after 3 weeks
Outline: as §1

[7] = system: Echinochloa crus-galli; assay: Pre-emergence herbicidal effect; details: scored visually after 3 weeks
Outline: as §1

[8] = system: Alopecurus myosuroides; assay: Pre-emergence herbicidal effect; details: scored visually after 3 weeks
Outline: as §1

[9] = system: Matricaria inodora; assay: Pre-emergence herbicidal effect; details: scored visually after 3 weeks
Outline: as §1

[10] = system: Avena fatua; assay: Pre-emergence herbicidal effect; details: scored visually after 3 weeks
Outline: as §1

[11] = system: Stellaria media; assay: Post-emergence herbicidal effect; details: assessed visually after about 3 weeks vs untreated controls
Outline: (§2)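 Sow in sandy loam; grow in greenhouse 2–3 wk; spray one-leaf plants with WP or EC suspension/emulsion (600–800 L/ha water, 0.2% wetter); hold ~3 wk under optimal conditions; rate visually vs untreated (0–100%).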

[12] = system: Setaria viridis; assay: Post-emergence herbicidal effect; details: assessed visually after about 3 weeks vs untreated controls
Outline: as §2

[13] = system: Lolium multiflorum; assay: Post-emergence herbicidal effect; details: assessed visually after about 3 weeks vs untreated controls
Outline: as §2

[14] = system: Viola tricolor; assay: Post-emergence herbicidal effect; details: assessed visually after about 3 weeks vs untreated controls
Outline: as §2

[15] = system: Echinochloa crus-galli; assay: Post-emergence herbicidal effect; details: 320 g/ha, assessed visually after about 3 weeks vs untreated controls
Outline: as §2

[16] = system: Polygonum convolvulus; assay: Post-emergence herbicidal effect; details: 320 g/ha, assessed visually after about 3 weeks vs untreated controls
Outline: as §2

[17] = system: Polygonum convolvulus; assay: Pre-emergence herbicidal effect; details: scored visually after 3 weeks
Outline: as §1

[18] = system: Amaranthus retroflexus; assay: Post-emergence herbicidal effect; details: assessed visually after about 3 weeks vs untreated controls
Outline: as §2

[19] = system: Ipomoea purpurea; assay: Post-emergence herbicidal effect; details: assessed visually after about 3 weeks vs untreated controls
Outline: as §2

[20] = system: Veronica persica; assay: Post-emergence herbicidal effect; details: assessed visually after about 3 weeks vs untreated controls
Outline: as §2

[21] = system: Matricaria inodora; assay: Post-emergence herbicidal effect; details: assessed visually after about 3 weeks vs untreated controls
Outline: as §2

[22] = system: Abutilon theophrasti; assay: Post-emergence herbicidal effect; details: assessed visually after about 3 weeks vs untreated controls
Outline: as §2

[23] = system: Abutilon theophrasti; assay: Pre-emergence herbicidal effect; details: Dosage 320 g/ha, scored visually after 3 weeks
Outline: as §1

| SMILES | AMARE pre-emergence efficacy (herbicidal activity) ([1]; Dosage 80 g/ha) | AMARE pre-emergence efficacy (herbicidal activity) ([1]; Dosage 320 g/ha) | STEME pre-emergence efficacy (herbicidal activity) ([2]; Dosage 80 g/ha) | STEME pre-emergence efficacy (herbicidal activity) ([2]; Dosage 320 g/ha) | SETVI pre-emergence efficacy (herbicidal activity) ([3]; Dosage 80 g/ha) | SETVI pre-emergence efficacy (herbicidal activity) ([3]; Dosage 320 g/ha) | VERPE pre-emergence efficacy (herbicidal activity) ([5]; Dosage 320 g/ha) | VIOTR pre-emergence efficacy (herbicidal activity) ([6]; Dosage 80 g/ha) | VIOTR pre-emergence efficacy (herbicidal activity) ([6]; Dosage 320 g/ha) | ECHCG pre-emergence efficacy (herbicidal activity) ([7]; Dosage 320 g/ha) | ALOMY pre-emergence efficacy (herbicidal activity) ([8]; Dosage 320 g/ha) | MATIN pre-emergence efficacy (herbicidal activity) ([9]; Dosage 80 g/ha) | MATIN pre-emergence efficacy (herbicidal activity) ([9]; Dosage 320 g/ha) | AVEFA pre-emergence efficacy (herbicidal activity) ([10]; Dosage 320 g/ha) | post-emergence efficacy STEME ([11]; 320 g/ha) | post-emergence efficacy VIOTR ([14]; 320 g/ha) | post-emergence efficacy ECHCG [15] | VERPE pre-emergence efficacy (herbicidal activity) ([5]; Dosage 80 g/ha) | POLCO pre-emergence efficacy (herbicidal activity) ([17]; Dosage 80 g/ha) | POLCO pre-emergence efficacy (herbicidal activity) ([17]; Dosage 320 g/ha) | also measured |
| --- | --- | --- | --- | --- | --- | --- | --- | --- | --- | --- | --- | --- | --- | --- | --- | --- | --- | --- | --- | --- | --- |
| Nc1nc(NC2CCc3ccsc32)ncc1C(F)(F)F (racemic) [compound 29] | 60% | 100% | 100% | 100% | 90% | 100% | 90% | 100% | 100% | 100% | 100% | 100% | 100% | 100% | 100% | 90% | 100% |  |  |  | LOLMU pre-emergence efficacy (herbicidal activity) [4]: 100%; post-emergence efficacy STEME ([11]; 80 g/ha): 90%; post-emergence efficacy SETVI ([12]; 80 g/ha): 90%; post-emergence efficacy SETVI ([12]; 320 g/ha): 100%; post-emergence efficacy LOLMU ([13]; 320 g/ha): 80%; post-emergence efficacy VIOTR ([14]; 80 g/ha): 80%; post-emergence efficacy POLCO [16]: 90% |
| Cc1cc2c(s1)CCCC2Nc1ncc(SC(F)(F)F)c(C)n1 (racemic) [compound 80] | 100% | 100% | 100% | 100% | 100% | 100% | 100% | 90% | 100% |  | 70% | 70% | 90% | 60% | 100% | 100% | 70% | 100% | 100% | 100% | post-emergence efficacy AMARE ([18]; 80 g/ha): 100%; post-emergence efficacy AMARE ([18]; 320 g/ha): 100%; post-emergence efficacy STEME ([11]; 80 g/ha): 100%; post-emergence efficacy LOLMU ([13]; 80 g/ha): 70%; post-emergence efficacy LOLMU ([13]; 320 g/ha): 90%; post-emergence efficacy PHBPU ([19]; 80 g/ha): 90%; post-emergence efficacy PHBPU ([19]; 320 g/ha): 100%; post-emergence efficacy VERPE ([20]; 80 g/ha): 90%; post-emergence efficacy VERPE ([20]; 320 g/ha): 100%; post-emergence efficacy VIOTR ([14]; 80 g/ha): 100%; post-emergence efficacy MATIN ([21]; 80 g/ha): 70%; post-emergence efficacy MATIN ([21]; 320 g/ha): 90%; post-emergence efficacy ABUTH ([22]; 80 g/ha): 80%; post-emergence efficacy ABUTH ([22]; 320 g/ha): 90%; post-emergence efficacy POLCO [16]: 60% |
| Nc1nc(NC2CCc3sccc32)ncc1C(F)(F)F (racemic) [compound 215] | 100% | 100% | 100% | 100% | 90% | 100% | 100% | 80% | 90% | 100% | 90% | 100% | 100% | 70% |  |  |  | 100% |  | 100% | LOLMU pre-emergence efficacy (herbicidal activity) [4]: 100%; ECHCG pre-emergence efficacy (herbicidal activity) ([7]; Dosage 80 g/ha): 80%; AVEFA pre-emergence efficacy (herbicidal activity) ([10]; Dosage 80 g/ha): 70% |
| Cc1cc2c(s1)CCCC2Nc1nc(N)c([S+](C)[O-])c(C(C)F)n1 (racemic) [compound 309] | 90% | 100% | 100% | 100% | 90% | 100% | 100% | 100% | 100% | 90% | 90% | 90% | 100% | 90% |  |  |  | 100% | 100% | 100% | ECHCG pre-emergence efficacy (herbicidal activity) ([7]; Dosage 80 g/ha): 60%; ABUTH pre-emergence efficacy (herbicidal activity) [23]: 80% |
| Cc1cc2c(s1)CCCC2Nc1nc(N)c(Br)c(C(F)F)n1 (racemic) [compound 314] | 90% |  | 100% | 100% | 100% | 100% | 100% | 100% | 100% | 90% | 90% | 90% |  | 60% | 50% | 60% | 60% |  | 100% | 100% | ECHCG pre-emergence efficacy (herbicidal activity) ([7]; Dosage 80 g/ha): 70%; ALOMY pre-emergence efficacy (herbicidal activity) ([8]; Dosage 80 g/ha): 60%; ABUTH pre-emergence efficacy (herbicidal activity) [23]: 60%; post-emergence efficacy SETVI ([12]; 320 g/ha): 60%; post-emergence efficacy PHBPU ([19]; 320 g/ha): 90%; post-emergence efficacy ABUTH ([22]; 320 g/ha): 70% |
